Values of other authors, collected in PubChem BioAssay AID1259409 (Chemical Carcinogenesis Research Information System (CCRIS), 2018).

Tested on: rodent chemically induced tumor inhibition, incidence and multiplicity
Test: CCRIS tumor inhibitor studies
Conditions: Carcinogen: 4-(METHYLNITROSAMINO)-1-(3-PYRIDYL)-1-BUTANONE, 64091-91-4, Promoter: NONE USED; for tumour outcome (control, treated, inhibition, significance): Dose [Inhibitor]: 0

In the case of `S=C=NCCc1ccccc1`, the “tumour outcome (control, treated, inhibition, significance)” value (3 UMOL/G OF DIET FOR 112 WK BEGINNING 1 WK PRIOR TO CARCINOGEN TREATMENT (STUDY DURATION: 112 WK), Route [Inhibitor]: ORAL, Species: RAT, Strain/Sex: F344/MALE, Target Tissue: Type of Lesion: PANCREAS (EXOCRINE): MALIGNANT TUMOR, Dose [Carcinogen]: 2 PPM IN DRINKING WATER FOR 111 WK) is listed as 4/52 (8%), 0/59 (0%), 100%, p=0.005, the “tumour outcome (control, treated, inhibition, significance)” value (5 UMOL 1/D FOR 4 D ADMINISTERED PRIOR TO CARCINOGEN DOSE (STUDY DURATION: 116 D), Route [Inhibitor]: GAVAGE, Species: MOUSE, Strain/Sex: STRAIN-A, Target Tissue: Type of Lesion: LUNG: ADENOMA, Dose [Carcinogen]: 10 UMOL IN SALINE ADMINISTERED 2 HR POST LAST AGENT DOSE) is listed as 100%, 93%, 7%, not calculated and the “tumour outcome (control, treated, inhibition, significance)” value (5 UMOL 1/D FOR 4 D ADMINISTERED PRIOR TO CARCINOGEN TREATMENT (STUDY DURATION: 116 D), Route [Inhibitor]: GAVAGE, Species: MOUSE, Strain/Sex: STRAIN A, Target Tissue: Type of Lesion: LUNG: ADENOMA, Dose [Carcinogen]: 10 UMOL ONCE 2 HR AFTER FINAL DOSE OF INHIBITOR) is listed as 100%, 93%, 7%, not significant. The “tumour outcome (control, treated, inhibition, significance)” value (5 UMOL 1/D FOR 4 DAYS ADMINISTERED PRIOR TO CARCINOGEN TREATMENT (STUDY DURATION: 116 D), Route [Inhibitor]: GAVAGE, Species: MOUSE, Strain/Sex: STRAIN-A, Target Tissue: Type of Lesion: LUNG: ADENOMA, Dose [Carcinogen]: 10 UMOL ONCE 2 HR AFTER FINAL DOSE OF INHIBITOR) was 100%, 89%, 11%, not significant, the “tumour outcome (control, treated, inhibition, significance)” value (5 UMOL/D ADMINISTERED TO MICE HETEROZYGOUS (P53+/-) FOR P53 ALLELES FOR 4 CONSECUTIVE DAYS PRIOR TO CARCINOGEN DOSE (, Route [Inhibitor]: GAVAGE, Species: MOUSE, Strain/Sex: (A/J X TSG-P53)F1/FEMALE, Target Tissue: Type of Lesion: LUNG: ADENOMA, Dose [Carcinogen]: 10 UMOL ONCE) was 100%, 40%, 60%, p<0.0001 and the “tumour outcome (control, treated, inhibition, significance)” value (5 UMOL/D ADMINISTERED TO MICE HOMOZYGOUS (P53+/+) FOR P53 ALLELES FOR 4 CONSECUTIVE DAYS PRIOR TO CARCINOGEN DOSE (ST, Route [Inhibitor]: GAVAGE, Species: MOUSE, Strain/Sex: (A/J X TSG-P53)F1/FEMALE, Target Tissue: Type of Lesion: LUNG: ADENOMA, Dose [Carcinogen]: 10 UMOL ONCE) was 100%, 36%, 64%, p<0.0001. The “tumour outcome (control, treated, inhibition, significance)” value (5 UMOL/D FOR 4 CONSECUTIVE DAYS (STUDY DURATION: 17 WK), Route [Inhibitor]: GAVAGE, Species: MOUSE, Strain/Sex: STRAIN-A/FEMALE, Target Tissue: Type of Lesion: LUNG: ADENOMA, Dose [Carcinogen]: 10 UMOL ONCE 2 HR POST LAST AGENT DOSE) was 100%, 89%, 11%, not calculated, the “tumour outcome (control, treated, inhibition, significance)” value (5 UMOL/D FOR 4 CONSECUTIVE DAYS PRIOR TO CARCINOGEN DOSE (STUDY DURATION: 18 WK), Route [Inhibitor]: GAVAGE, Species: MOUSE, Strain/Sex: STRAIN-A/FEMALE, Target Tissue: Type of Lesion: LUNG: ADENOMA, Dose [Carcinogen]: 10 UMOL ONCE) was 100%, 100%, 0%, not significant and the “tumour outcome (control, treated, inhibition, significance)” value (25 UMOL 1/D FOR 4 D ADMINISTERED PRIOR TO CARCINOGEN TREATMENT (STUDY DURATION: 116 D), Route [Inhibitor]: GAVAGE, Species: MOUSE, Strain/Sex: STRAIN-A, Target Tissue: Type of Lesion: LUNG: ADENOMA, Dose [Carcinogen]: 10 UMOL ONCE 2 HR AFTER FINAL DOSE OF INHIBITOR) was 100%, 30%, 70%, p<0.01. For the same molecule, the “tumour outcome (control, treated, inhibition, significance)” value (25 UMOL/D FOR 4 CONSECUTIVE DAYS (STUDY DURATION: 17 WK), Route [Inhibitor]: GAVAGE, Species: MOUSE, Strain/Sex: STRAIN-A/FEMALE, Target Tissue: Type of Lesion: LUNG: ADENOMA, Dose [Carcinogen]: 10 UMOL ONCE 2 HR POST LAST AGENT DOSE) was 100%, 30%, 70%, p<0.01, the “tumour outcome (control, treated, inhibition, significance)” value (652 PPM IN DIET FOR 22 WK BEGINNING 1 WK PRIOR TO CARCINOGEN TREATMENT (STUDY DURATION: 98 WK), Route [Inhibitor]: ORAL, Species: RAT, Strain/Sex: F344/MALE, Target Tissue: Type of Lesion: LUNG: TUMOR, Dose [Carcinogen]: 1.5 MG/KG BW 3/WK FOR 20 WK) was 22/33 (67%), 6/36 (17%), 75%, p<0.001 and the “tumour outcome (control, treated, inhibition, significance)” value (652 PPM IN DIET FOR 22 WK BEGINNING 1 WK PRIOR TO CARCINOGEN TREATMENT (STUDY DURATION: 98 WK), Route [Inhibitor]: ORAL, Species: RAT, Strain/Sex: F344/MALE, Target Tissue: Type of Lesion: NASAL CAVITY: TUMOR, Dose [Carcinogen]: 1.5 MG/KG BW 3/WK FOR 20 WK) was 28/36 (78%), 17/36 (47%), 40%, not significant. For the same molecule, the “tumour outcome (control, treated, inhibition, significance)” value (1304 PPM IN DIET FOR 22 WK BEGINNING 1 WK PRIOR TO CARCINOGEN DOSE (STUDY DURATION: 98 WK), Route [Inhibitor]: ORAL, Species: RAT, Strain/Sex: F344/MALE, Target Tissue: Type of Lesion: NASAL CAVITY: TUMOR, Dose [Carcinogen]: 1.5 MG/KG BW 3/WK FOR 20 WK) was 28/36 (78%), 21/36 (58%), 26%, not significant, the “tumour outcome (control, treated, inhibition, significance)” value (1304 PPM IN DIET FOR 22 WK BEGINNING 1 WK PRIOR TO CARCINOGEN TREATMENT (STUDY DURATION: 98 WK), Route [Inhibitor]: ORAL, Species: RAT, Strain/Sex: F344/MALE, Target Tissue: Type of Lesion: LUNG: TUMOR, Dose [Carcinogen]: 1.5 MG/KG BW 3/WK FOR 20 WK) was 22/33 (67%), 3/36 (8%), 88%, p<0.0001 and the outcome (Dose [Inhibitor]: 3 UMOL/G DIET BEGINNING 1 WK PRIOR TO FIRST CARCINOGEN DOSE (STUDY DURATION: 104 WK), Route [Inhibitor]: ORAL, Species: RAT, Strain/Sex: F344/MALE, Target Tissue: Type of Lesion: ADRENAL GLAND: ADENOMA, Dose [Carcinogen]: 1.76 MG/KG 3/WK FOR 20 WK) was 0/40 (0%), 2/40 (5%), -5%, not calculated.
